Measured values as given in patent US9084799B2, “Inhaled combination therapy” (Pulmagen Therapeutics (Synergy) Limited, priority 2005, dated 2015).
Like-named read-outs stand apart in the source and are kept apart here.

How the values were obtained:
[1] = tested on: key inflammatory cells in COPD; conditions: 500 mcg inhaled twice daily, 3 months, COPD patients; Hattatowa et al. 2002; cited from earlier work
[2] = Single inhaled exposure, dose 187.5 mg; asthma patients; Bohadana et al. (1980); cited from earlier work
[3] = tested on: TS induced BAL inflammation; experiment: Tobacco smoke (TS) induced BAL inflammation, 11 daily exposures, BAL cell counts; format: in vivo, A/J mice; conditions: for % Inhibition, BAL Total cells / % Inhibition, BAL lymphocytes / % Inhibition, BAL macrophages / % Inhibition, BAL neutrophils: 24 hrs following 11 daily TS exposures
Excerpt: Female inbred A/J mice (body weights on initial day of use: ˜20 g) were obtained from Harlan, full barrier bred and certified free from specified micro-organisms on receipt. The mice were housed, up to 5 per cage, in individually ventilated, polycarbonate solid bottomed cages (IVC) with grade 8 aspen chip bedding. Environment (airflow, temperature and humidity) within the cages was controlled by the IVC system (Techniplast). Food (RM 1, Special Diet Services) and water were provided ad libitum. Individual animals were identified by unique coloured “pentel” markings on their tails, weighed and randomly assigned to treatment groups.
In this exposure protocol, mice were exposed in groups of 5 in individual clear polycarbonate chambers (27 cm×16 cm×12 cm). The TS from the cigarettes was allowed to enter the exposure chambers at a flow rate of 100 ml/min. In order to minimise any potential problems caused by repeated exposure to a high level of TS (6 cigarettes), the exposure of the mice to TS was increased gradually over the exposure period to a maximum of 6 cigarettes. The exposure schedule used in this study was as follows:
A further group of mice were exposed to air on a daily basis for equivalent lengths of time as controls (no TS exposure).
The trachea was cannulated using a Portex nylon intravenous cannula (pink luer fitting) shortened to approximately 8 mm. Phosphate buffered saline (PBS) containing heparin (10 units/ml) was used as the lavage fluid. A volume of 0.4 ml was gently instilled and withdrawn 3 times using a 1 ml syringe and then placed in an Eppendorf tube and kept on ice prior to subsequent determinations.
Lavage fluid was separated from cells by centrifugation and the supernatant decanted and frozen for subsequent analysis. The cell pellet was re-suspended in a known volume of PBS and total cell numbers calculated by counting a stained (Turks stain) aliquot under a microscope using a haemocytometer.
The residual cell pellet was diluted to approximately 10^5 cells per ml. A volume of 500 μl was placed in the funnel of a cytospin slide and centrifuged for 8 min at 800 rpm. The slide was air dried and stained using ‘Kwik-Diff’ solutions (Shandon) as per the proprietary instructions. When dried and cover-slipped, differential cells were counted using light microscopy. Up to 400 cells were counted by unbiased operator using light microscopy. Cells were differentiated using standard morphometric techniques.
Since tests for normality were positive the data was subjected to a one way analysis of variance test (ANOVA), followed by a Bonferroni correction for multiple comparisons in order to test for significance between treatment groups. A “p” value of <0.05 was considered to be statistically significant. Percentage inhibitions were automatically calculated within the Excel spreadsheets for the cell data using the formula below: […]

[4] = intra-nasal 0.1 mg/kg theophylline/0.1 mg/kg dexamethasone versus oral 1 mg/kg theophylline/0.3 mg/kg dexamethasone
Procedure: (§1) The mice were terminally anaesthetised and blood collected by cardiac puncture into syringes containing 20 U lithium Heparin in 5 ul. The collected blood was mixed and decanted into eppendorf tubes before centrifugation in a microfuge. Plasma was collected and stored at −80° C. prior to analysis by an HPLC/MS/MS method. The equipment used in the measurement of plasma levels were a Micromann Quatro Micro Mass Spectrometer (Micromass UK Limited) and a Waters 2795 Alliance HT liquid chromatograph (Waters USA).
(§2) Samples were prepared for analysis by adding 200 μl of acetonitrile (containing 0.25 mg/l dextrorphan as an internal standard) to 50 μl of each thawed sample and standard and mixed vigorously. Each sample and standard was then centrifuged at 10000 g for 2 minutes and the supernatant removed for LC-MS/MS analysis.
(§3) Positive ions for parent compound and a specific fragment product were monitored in a Multiple Reaction Monitoring mode using a Micromass Quatro Micro Mass Spectrometer with Micromass MassLynx software version 4.0. A 25 μl aliquot of each sample and standard was injected onto the liquid chromatography system. Lowest order of quantification (LOQ) was determined as 0.016 mg/L with the detection limit being 0.003 mg/L.

[5] = cited from earlier work
in vivo = conditions: A/J, mouse, 1 hour post dosing
Procedure: as §1, §2, §3

[6] = cited from earlier work; remark: listed apart in the source
mouse model of asthma = conditions: 350 mcg/kg intra-nasally; Shen et al. 2002; cited from earlier work
[7] = Intra-nasal dosing, Dexamethasone 0.1 mg/kg
[8] = Oral dosing, Dexamethasone 0.3 mg/kg
[9] = Intra-nasal dosing, Theophylline 0.5 mg/kg
[10] = Oral dosing, Theophylline 3 mg/kg
[11] = monotherapy, oral or intra-nasal

## (6(,11(,16(,17( )-6,9-difluoro-11-hydroxy-16-methyl-3-oxo-17-(1-oxopropoxy)androsta-1,4-diene-17-carbothioic acid S-(fluoromethyl) ester [Fluticasone]
[1]
  reductions in key inflammatory cells in bronchial biopsies: did not detect significant reductions

## Cn1c(=O)c2[nH]cnc2n(C)c1=O.NCCN [Aminophylline, theophylline ethylenediamine]
[2]
  Net peak theophylline plasma level: 0.91 mg/L

## C[C@@H]1C[C@H]2[C@@H]3CCC4=CC(=O)C=C[C@]4(C)[C@@]3(F)[C@@H](O)C[C@]2(C)[C@@]1(O)C(=O)CO [Dexamethasone]
[3]; [7]
  % Inhibition, BAL Total cells: 13%
  % Inhibition, BAL lymphocytes: 14%
  % Inhibition, BAL macrophages: 10%
  % Inhibition, BAL neutrophils: 16%
[3]; [8]
  % Inhibition, BAL Total cells: −16%
  % Inhibition, BAL lymphocytes: −7%
  % Inhibition, BAL macrophages: −14%
  % Inhibition, BAL neutrophils: −46%

## Cn1c(=O)c2[nH]cnc2n(C)c1=O [Theophylline, 3,7-dihydro-1,3-dimethyl-1H-purine-2,6-dione]
[3]; [9]
  % Inhibition, BAL Total cells: 16%
  % Inhibition, BAL lymphocytes: 14%
  % Inhibition, BAL macrophages: 3%
  % Inhibition, BAL neutrophils: 25%
[3]; [10]
  % Inhibition, BAL Total cells: −11%
  % Inhibition, BAL lymphocytes: 1%
  % Inhibition, BAL macrophages: −4%
  % Inhibition, BAL neutrophils: −10%
[3]; [11]
  inhibition of total number of cells recovered in the BAL induced by TS exposure: Neither theophylline nor dexamethasone monotherapy when given orally or by the intra-nasal route significantly inhibited
  inhibitory effect on specific cell types in BAL (macrophages, neutrophils, lymphocytes): No statistically significant inhibitory effect
[4]
  systemic theophylline levels, times lower intra-nasal vs oral: ~17 times
[5]; 250 or 375 mg theophylline twice daily with 400 mcg budesonide, asthma patients, Evans et al.
  plasma concentration of theophylline, median value: 8700 ng/mL
[5]; Daily dose 400 mg oral, 4 weeks, Alexander et al. (1980)
  Average theophylline plasma level: 15.1 mg/L
[5]; Daily dose 600 mg oral, 4 weeks, Iversen et al. (1992)
  Average theophylline plasma level: 7.1 mg/L
[5]; Daily dose 300-600 mg oral, 4 weeks, Culpitt et al. (2002)
  Average theophylline plasma level: 9.5 mg/L
[5]; Phyllocontin or Uniphylline, daily dose 562-573 mg oral, 4 weeks, U.S. Pat. No. 6,025,360
  theophylline plasma level in 20/25 patients (average not quoted): had levels ≧5 mg/L
In vivo; mean theophylline plasma level, Intra-nasal 0.1 mg/kg theophylline in combination with 0.1 mg/kg Dexamethasone, TS exposed mice
  concentration at 1 h: 22 ± 9 ng/mL
In vivo; mean theophylline plasma level, Intra-nasal 0.25 mg/kg theophylline in combination with 0.1 mg/kg Dexamethasone, TS exposed mice
  concentration at 1 h: 45 ± 10 ng/mL
In vivo; mean theophylline plasma level, Intra-nasal 0.5 mg/kg theophylline in combination with 0.1 mg/kg Dexamethasone, TS exposed mice
  concentration at 1 h: 74 ± 13 ng/mL
In vivo; mean theophylline plasma level, Oral 1 mg/kg theophylline in combination with 0.3 mg/kg Dexamethasone, TS exposed mice
  concentration at 1 h: 479 ± 47 ng/mL
In vivo; mean theophylline plasma level, Oral 3 mg/kg theophylline in combination with 0.3 mg/kg Dexamethasone, TS exposed mice
  concentration at 1 h: 1370 ± 192 ng/mL
In vivo; systemic theophylline exposure (plasma level), intra-nasal administration at the doses used (0.1-0.5 mg/kg)
  concentration at 1 h: < 100 ng/mL
[6]; adults
  mean plasma half-life: about 8 hours
[6]; oral absorption
  bioavailability from the gastrointestinal tract: 90-100%
[6]; premature neonates
  mean plasma half-life: approximately 30 hours
[6]; slowed by the presence of food
  time to peak levels following ingestion: 1 to 2 h
[6]; up to the age of 20
  mean plasma half-life: approximately 3.5 hours
[6]; up to the first year of life
  mean plasma half-life: 5 h
[6]; within the first 6 months
  mean plasma half-life: 12 h

## (+)-[(RS)-16a,17a-Butylidenedioxy-11b, 21-dihydroxy-1,4-pregnadiene-3,20-dione] [Budesonide]
Mouse model of asthma
  efficacy in mouse model of asthma: efficacious
